Experimental data from US5175283A, “Azetidin-2-one derivatives as serine protease inhibitors” (Bristol-Myers Squibb Company, priority 1992, dated 1992).
pIC50: −log10 of the molar value. Several values for one entry are separate records, joined by “and”; a condition that tells them apart may be missing. Equal entries are not always repeated. Structures can show the parent of a compound that is named as a salt.

Key:
[1] = molecular target: T1, human α-thrombin (Homo sapiens, UniProt P00734); experiment: Enzyme assay for the inhibition of thrombin (s-2238 substrate); assay type: biochemical
T1 construct: purified human α-thrombin dissolved in thrombin assay buffer
Description: 1. Enzyme Assays for the Inhibition of Thrombin The following reagents were used in these assays: Thrombin assay buffer: 145 mM NaCl, 5 mM KCl, 30 mM N-2-hydroxyethyl piperazine-N'-2-ethanesulfonic acid, pH 7.4, 1 mg/ml polyethylene glycol (PEG-8000). 3 mM D-Phe-Pip-Arg-p-nitroanilide (s-2238) in H2 O. 3 U/ml purified human α-thrombin dissolved in thrombin assay buffer. Inhibitors to be tested were dissolved in H2 O, methanol, or DMSO just prior to use. Assay Procedure To each well in a 96-well microtiter plate, 270 μl of assay buffer was added. Human α-thrombin (10 μl of 3 U/ml) was added, then 10 μl of inhibitor were added and mixed. The samples were incubated at room temperature for a defined period of time (3 min for initial IC50 determinations). The enzymic reaction was started with 10 μl of 3 mM s-2238 substrate and continued at room temperature. The change in optical density was measured at 405 nm. A kinetic microplate reader (Molecular Devices Corporation Vmax) was used to measure the change in optical density over time. Results are reported in Table 1 as IC50 values, i.e., the drug concentration in mole/liter which caused 50% inhibition of the enzyme activity (after incubation of the drug with the enzyme for 3 min). Alternatively, results are also reported in Table 1 expressed as k2 /ki which is the second order rate constant in per mole per minute for inactivation time of the enzyme [Kitz, et al., J. Biol. Chem., 237, 3245 (1962)].

[2] = molecular target: T1, human α-thrombin; experiment: Concentration required for doubling thrombin clotting time in human plasma; assay type: biochemical; settings: human citrated plasma, 10 U/ml human thrombin; read-out: ED50, drug concentration required to double clotting time
Description: Procedure for Determining the Concentration Required for Doubling Thrombin Clotting Time--Clotting Time Assays The following reagents were used in these assays: Owren's Veronal Buffer: 125 mM NaCl, 28.4 mM sodium barbital, pH 7.35. Human citrated plasma obtained from human volunteers or citrated plasma obtained from IP-dosed animals (prepared as described below). 10 NIH Units/ml human α-thrombin in thrombin buffer for use with human plasma. […] The blood was centrifuged at […] (480×g) for 15 min at room temperature (using a Sorvall RT 6000B centrifuge). The plasma was removed, pooled, and aliquoted into small tubes which were stored frozen for later use. Clotting Time Measurement Clotting times were determined by pipetting 0.1 ml of Owren's buffer (pre-warmed 37° C.) and 0.1 ml of human or rat plasma into yellow sample cuvettes. For studies with human plasma 10 U/ml human thrombin (10 ml) was placed in the reservoir assembly station of the MLA 700. (Medical Laboratory Automation, Electra 700 Reservoir Assembly). For rat studies, the human thrombin concentration was 25 U/ml. The cuvettes were vortexed and then placed on the MLA 700 sample wheel. The coagulation timer (MLA 700) automatically dispenses 0.1 ml human thrombin into the sample in each cuvette. Detection of the fibrin clot was determined optically by the MLA 700. Studies were performed to determine the concentration of drug which caused a doubling of the clotting time in human plasma. From standard curves of thrombin activity added to the sample versus the clotting time, the concentration of drug which caused a doubling of the thrombin clotting time corresponded to inhibition of approximately 1/2 of the added thrombin clotting activity. Results are reported in Table 1 as ED50 values, i.e., the drug concentration required to double clotting time.

[3] = tested on: Thrombin Induced Clotting Time; experiment: Thrombin induced clotting time ex vivo in plasma of i.p. dosed rats; settings: rat, 50 mg/kg i.p.; for Thrombin Induced Clotting Time (1:4 Control Plasma): plasma diluted 1:4 with control plasma; for Thrombin Induced Clotting Time, terminated samples / Thrombin Induced Clotting Time: undiluted plasma, per animal
Description: Procedure for Determining the Concentration Required for Doubling Thrombin Clotting Time--Clotting Time Assays
(§1) The following reagents were used in these assays:
Owren's Veronal Buffer: 125 mM NaCl, 28.4 mM sodium barbital, pH 7.35.
Human citrated plasma obtained from human volunteers or citrated plasma obtained from IP-dosed animals (prepared as described below).
25 NIH Units/ml human α-thrombin in thrombin buffer for use with rat plasma.
Test compound was prepared just prior to dosing. Routinely the drugs are dissolved in water. Animals were dosed by i.p. injection.
After the appropriate time period, the animals were ether-anesthetized, and blood was drawn by cardiac puncture using 333 μl of 3.8% sodium citrate per 3 ml blood. After all of the samples were obtained, the tubes were centrifuged at 1,500 rpm for 15 min as described for the human blood samples.
Clotting Time Measurement
Clotting times were determined by pipetting 0.1 ml of Owren's buffer (pre-warmed 37° C.) and 0.1 ml of human or rat plasma into yellow sample cuvettes. For studies with human plasma 10 U/ml human thrombin (10 ml) was placed in the reservoir assembly station of the MLA 700. (Medical Laboratory Automation, Electra 700 Reservoir Assembly). For rat studies, the human thrombin concentration was 25 U/ml. The cuvettes were vortexed and then placed on the MLA 700 sample wheel. The coagulation timer (MLA 700) automatically dispenses 0.1 ml human thrombin into the sample in each cuvette. Detection of the fibrin clot was determined optically by the MLA 700.
In separate studies, two compounds, Compound XIX and Compound XI, were dosed 50 mg/kg I.P. to three rats in each study group. […] "Term" indicates "terminated sample" where a clot was unable to form after approximately 99 seconds. When this occurred, the animal plasma was diluted 1: 1 with control rat plasma and the sample tested again. If need, the animal plasma was diluted 1:4 and tested again.

[4] = molecular target: T2, bovine pancreatic trypsin (Bos taurus, UniProt P00760); experiment: Enzyme assay for the inhibition of trypsin (Z-Val-Gly-Arg-pNA substrate); assay type: biochemical; settings: 3 min incubation of drug with enzyme, room temperature, pH 8.0; read-out: Trypsin IC50
T2 construct: purified bovine pancreatic trypsin dissolved in trypsin assay buffer
T2 sequence (P00760 24-246): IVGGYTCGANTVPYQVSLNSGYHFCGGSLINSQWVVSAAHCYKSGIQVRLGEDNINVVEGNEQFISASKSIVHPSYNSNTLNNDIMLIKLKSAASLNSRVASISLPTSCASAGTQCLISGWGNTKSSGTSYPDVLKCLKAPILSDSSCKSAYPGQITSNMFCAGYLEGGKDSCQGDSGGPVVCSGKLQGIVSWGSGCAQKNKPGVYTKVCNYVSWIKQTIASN
Description: 2. Enzyme Assays for the Inhibition of Trypsin
as §1
Trypsin assay buffer: 2 mM CaCl2, 50 mM Tris/Cl pH 8.0.
3 mM Z-Val-Gly-Arg-pNA (Chromzyme TRy) dissolved in H2 O.
6 μg/ml of purified bovine pancreatic trypsin dissolved in trypsin assay buffer.
Inhibitors to be tested were dissolved in H2 O, methanol or DMSO just prior to use.
To each well in a 96-well microtiter plate, 270 μl of assay buffer was added. Bovine trypsin (10 μl of 6 μg/ml) was added. Inhibitor (10 μl ) was added, mixed, and then incubated at room temperature for 3 min. The enzymic reaction was started with 10 μl of 3 mM Z-Val-Gly-Arg-pNA substrate. The change in optical density was measured at 405 nm at room temperature. A kinetic microplate reader (Molecular Devices Corporation Vmax) was used to measure the change in optical density over time.
Results are reported in Table 1 as IC50 values, i.e., the drug concentration in mole/liter which caused 50% inhibition of the enzyme activity (after incubation of the drug with the enzyme for 3 min).

## CC(=O)N1C(=O)[C@@H](CCCNC(=N)N)[C@@H]1C(=O)N1CCCCC1 (relative stereo) [Compound XI, trans-4-(1-Piperidinocarbonyl)-3-guanidinooropyl-1-acetyl-2azetidinone hydrochloride salt]
[1]; 3 min incubation of drug with enzyme, room temperature
  pIC50: 7.05
[1]; human α-thrombin, s-2238, pH 7.4, room temperature
  Thrombin k2 /ki (second order rate constant for inactivation of the enzyme): 4.2 × 10^5 m^-1 min^-1
[2]
  IC (2-fold clotting time): 0.5 µM
[3]; 0.5 hr. post dose, plasma diluted 1:1 with control rat plasma
  Thrombin Induced Clotting Time (1:1 Control Plasma), terminated samples: term. ("terminated sample" where a clot was unable to form after approximately 99 seconds)
[3]; 0.5 hr. post dose, hydrochloride salt, 50 mg/kg, in s
  Thrombin Induced Clotting Time (1:4 Control Plasma): 18.0 and 17.7 and 32.4
[3]; 0.5 hr. post dose
  Thrombin Induced Clotting Time, terminated samples: term. ("terminated sample" where a clot was unable to form after approximately 99 seconds)
[3]; 2 hr. post dose, plasma diluted 1:1 with control rat plasma, in s
  Thrombin Induced Clotting Time (1:1 Control Plasma): 45.7
[3]; 2 hr. post dose, in s
  Thrombin Induced Clotting Time (1:4 Control Plasma): 14.0
[3]; 2 hr. post dose
  Thrombin Induced Clotting Time, terminated samples: term. ("terminated sample" where a clot was unable to form after approximately 99 seconds)
[3]; 2 hr. post dose, hydrochloride salt, 50 mg/kg
  Thrombin Induced Clotting Time: 17.2 s and 14.7 s
[3]; 5 hr. post dose, hydrochloride salt, 50 mg/kg
  Thrombin Induced Clotting Time: 13.1 s and 11.4 s and 11.5 s
[3]; three rats per group
  Clotting time ex vivo, result in words: prolonged clotting time
[4]
  pIC50: 8.05
